Consider 25 molecules from US10526327B2, “Histone demethylase inhibitors” (CELGENE QUANTICEL RESEARCH, INC., priority 2013, dated 2020).

A value given as a limit tells only on which side of the number the result lay.

For one test, the system named is KDM5A/B. The experiment in a line: In vitro cell-based assay: immuno-blot quantification of tri-methyl H3K4 in ZR-75-1 breast cancer cells. The following applies: 72 hours, tri-methyl H3K4 level relative to GAPDH, percent of DMSO, read-out: Cellular IC50. An outline of the steps:
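ZR-75-1 breast cancer cells treated 72 h with 11-point compound dilutions (1250 μM to 10 nM). H3K4me3 quantified by infrared immunoblot densitometry, normalized to GAPDH and expressed as percent of DMSO control; relative IC50 from curve fit.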

A further test addresses T1, Jarid1A (Homo sapiens, UniProt P29375).
T1 construct: purchased BPS Bioscience 50110
T1 sequence (P29375 1-1090): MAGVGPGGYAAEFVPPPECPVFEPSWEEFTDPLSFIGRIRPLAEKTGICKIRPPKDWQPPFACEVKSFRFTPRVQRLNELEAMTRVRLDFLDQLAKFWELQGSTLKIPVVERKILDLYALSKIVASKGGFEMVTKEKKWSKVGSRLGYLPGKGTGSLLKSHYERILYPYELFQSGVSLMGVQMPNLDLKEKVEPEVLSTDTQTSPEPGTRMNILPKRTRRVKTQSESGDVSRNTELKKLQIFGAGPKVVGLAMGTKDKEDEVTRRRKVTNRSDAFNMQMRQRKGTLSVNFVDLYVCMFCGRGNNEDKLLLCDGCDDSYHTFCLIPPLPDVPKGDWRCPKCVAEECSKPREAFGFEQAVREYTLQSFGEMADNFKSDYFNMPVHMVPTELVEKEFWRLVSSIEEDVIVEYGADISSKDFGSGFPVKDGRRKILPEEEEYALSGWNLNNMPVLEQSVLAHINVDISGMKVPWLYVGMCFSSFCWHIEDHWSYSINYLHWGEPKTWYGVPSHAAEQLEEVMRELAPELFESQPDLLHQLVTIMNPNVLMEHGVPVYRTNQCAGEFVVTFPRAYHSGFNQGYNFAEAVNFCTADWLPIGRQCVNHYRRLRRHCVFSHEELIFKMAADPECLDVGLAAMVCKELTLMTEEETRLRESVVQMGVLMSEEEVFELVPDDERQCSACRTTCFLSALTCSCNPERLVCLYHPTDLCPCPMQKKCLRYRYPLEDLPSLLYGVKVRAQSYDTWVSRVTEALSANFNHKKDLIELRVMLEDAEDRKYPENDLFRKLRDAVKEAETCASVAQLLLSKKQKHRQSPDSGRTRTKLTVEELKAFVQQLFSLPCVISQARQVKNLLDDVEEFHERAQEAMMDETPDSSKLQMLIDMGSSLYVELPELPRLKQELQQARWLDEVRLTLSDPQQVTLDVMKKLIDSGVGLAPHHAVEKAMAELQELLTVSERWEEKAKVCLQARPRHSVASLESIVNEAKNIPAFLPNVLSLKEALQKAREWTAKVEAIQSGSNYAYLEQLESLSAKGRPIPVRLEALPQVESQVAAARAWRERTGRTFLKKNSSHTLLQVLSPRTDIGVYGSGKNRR
The experiment in a line: Jarid1A in vitro enzyme inhibition assay (TR-FRET). It is filed as biochemical. In outline: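 Demethylation of 300 nM biotin-H3K4me3 peptide by 1 nM baculovirus-expressed Jarid1A (aa 1–1090) with 2 μM α-ketoglutarate, Fe(II) and ascorbate, pH 7.3, 30 min at room temperature. Stopped with EDTA; H3K4me1-2 product detected by TR-FRET (Eu anti-H3K4me1-2/streptavidin-APC). IC50 fitted from 665/615 ratio over 11-point dilutions.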

`N#CCC(=O)N1CCC[C@H](n2cc(Oc3nc(O)c4ccncc4n3)cn2)C1` [Example 166, 3-[(3S)-3-[4-({4-hydroxypyrido[3,4-d]pyrimidin-2-yl}oxy)-1H-pyrazol-1-yl]piperidin-1-yl]-3-oxopropanenitrile]: the IC50 was above 10000 nM in the test on KDM5A/B and at most 100 nM against Jarid1A.
On to `CC(=O)N1CC[C@@H](n2cc(Oc3nc(O)c4ccncc4n3)cn2)C1` [Example 129, 1-[(3R)-3-[4-({4-hydroxypyrido[3,4-d]pyrimidin-2-yl}oxy)-1H-pyrazol-1-yl]pyrrolidin-1-yl]ethan-1-one], for which the IC50 in the test with KDM5A/B is above 10000 nM; against Jarid1A, at most 100 nM.
On the same counts, the results for `Oc1nc(OCCC(F)(F)F)nc2cnccc12` [Example 13, 2-(3,3,3-trifluoropropoxy)pyrido[3,4-d]pyrimidin-4-ol] are above 10000 nM and at most 100 nM.
Regarding `N#CCC(=O)N1CC[C@@H](n2cc(Oc3nc(O)c4ccncc4n3)cn2)C1` [Example 130, 3-[(3R)-3-[4-({4-hydroxypyrido[3,4-d]pyrimidin-2-yl}oxy)-1H-pyrazol-1-yl]pyrrolidin-1-yl]-3-oxopropanenitrile], the values for the 50% inhibitory concentration (IC50) in the test with KDM5A/B and against Jarid1A were above 10000 nM and at most 100 nM, respectively.
For `O=C(C1CC1)N1CC[C@@H](n2cc(Oc3nc(O)c4ccncc4n3)cn2)C1` [Example 131, 2-({1-[(3R)-1-cyclopropanecarbonylpyrrolidin-3-yl]-1H-pyrazol-4-yl}oxy)pyrido[3,4-d]pyrimidin-4-ol] the same measures were 1000 to 10000 nM and at most 100 nM.
On the same counts, the results for `O=C(c1ccccc1)N1CCC[C@H](n2cc(Oc3nc(O)c4ccncc4n3)cn2)C1` [Example 167, 2-({1-[(3S)-1-benzoylpiperidin-3-yl]-1H-pyrazol-4-yl}oxy)pyrido[3,4-d]pyrimidin-4-ol] are 1000 to 10000 nM and at most 100 nM.
On the same counts, the results for `Oc1nc(Oc2cnn([C@H]3CCNC3)c2)nc2cnccc12` [Example 135, 2-({1-[(3S)-pyrrolidin-3-yl]-1H-pyrazol-4-yl}oxy)pyrido[3,4-d]pyrimidin-4-ol] are above 10000 nM and 100 to 1000 nM.
With `O=C(c1ccccc1)N1CC[C@@H](n2cc(Oc3nc(O)c4ccncc4n3)cn2)C1` [Example 132, 2-({1-[(3R)-1-benzoylpyrrolidin-3-yl]-1H-pyrazol-4-yl}oxy)pyrido[3,4-d]pyrimidin-4-ol], the IC50 is 1000 to 10000 nM with KDM5A/B and at most 100 nM against Jarid1A.
For `Oc1nc(Oc2cnn([C@H]3CCN(c4ccccc4)C3)c2)nc2cnccc12` [Example 145, 2-({1-[(3S)-1-phenylpyrrolidin-3-yl]-1H-pyrazol-4-yl}oxy)pyrido[3,4-d]pyrimidin-4-ol] the same measures were 1000 to 10000 nM and at most 100 nM.
For `Oc1nc(Oc2cnn([C@H]3CCN(c4ccc(F)cc4)C3)c2)nc2cnccc12` [Example 146, 2-({1-[(3S)-1-(4-fluorophenyl)pyrrolidin-3-yl]-1H-pyrazol-4-yl}oxy)pyrido[3,4-d]pyrimidin-4-ol] the same measures were 1000 to 10000 nM and at most 100 nM.
For `Oc1nc(Oc2cnn(CCN3CCOCC3)c2)nc2cnccc12` [Example 124, 2-({1-[2-(morpholin-4-yl)ethyl]-1H-pyrazol-4-yl}oxy)pyrido[3,4-d]pyrimidin-4-ol], the IC50 was 100 to 1000 nM in the test on KDM5A/B and at most 100 nM on Jarid1A.
As to `CCS(=O)(=O)N1CCC[C@@H](n2cc(Oc3nc(O)c4ccncc4n3)cn2)C1` [Example 150, 2-({1-[(3R)-1-(ethanesulfonyl)piperidin-3-yl]-1H-pyrazol-4-yl}oxy)pyrido[3,4-d]pyrimidin-4-ol], the IC50 with KDM5A/B is 100 to 1000 nM; at Jarid1A, at most 100 nM.
On to `Oc1nc(Oc2cnn([C@H]3CCN(c4ccc(Cl)cc4)C3)c2)nc2cnccc12` [Example 148, 2-({1-[(3S)-1-(4-chlorophenyl)pyrrolidin-3-yl]-1H-pyrazol-4-yl}oxy)pyrido[3,4-d]pyrimidin-4-ol], for which the IC50 in the test with KDM5A/B was 1000 to 10000 nM; at Jarid1A, at most 100 nM.
For `O=S(=O)(c1ccccc1)N1CCC[C@H](n2cc(Oc3nc(O)c4ccncc4n3)cn2)C1` [Example 163, 2-({1-[(3S)-1-(benzenesulfonyl)piperidin-3-yl]-1H-pyrazol-4-yl}oxy)pyrido[3,4-d]pyrimidin-4-ol], the 50% inhibitory concentration (IC50) in the test with KDM5A/B is 100 to 1000 nM; at Jarid1A it was at most 100 nM.
For `O=S(=O)(C1CC1)N1CCC[C@H](n2cc(Oc3nc(O)c4ccncc4n3)cn2)C1` [Example 162, 2-({1-[(3S)-1-(cyclopropanesulfonyl)piperidin-3-yl]-1H-pyrazol-4-yl}oxy)pyrido[3,4-d]pyrimidin-4-ol] the same measures were 100 to 1000 nM and at most 100 nM.
Consider `O=S(=O)(C1CC1)N1CC[C@H](n2cc(Oc3nc(O)c4ccncc4n3)cn2)C1` [Example 137, 2-({1-[(3S)-1-(cyclopropanesulfonyl)pyrrolidin-3-yl]-1H-pyrazol-4-yl}oxy)pyrido[3,4-d]pyrimidin-4-ol], for which the IC50 with KDM5A/B is 100 to 1000 nM; against Jarid1A, at most 100 nM.
For `O=S(=O)(C1CC1)N1CC[C@@H](n2cc(Oc3nc(O)c4ccncc4n3)cn2)C1` [Example 127, 2-({1-[(3R)-1-(cyclopropanesulfonyl)pyrrolidin-3-yl]-1H-pyrazol-4-yl}oxy)pyrido[3,4-d]pyrimidin-4-ol] the same measures were 1000 to 10000 nM and at most 100 nM.
On the same counts, the results for `CC(C)CCOc1nc(O)c2ccncc2n1` [Example 15, 2-(3-methylbutoxy)pyrido[3,4-d]pyrimidin-4-ol] are above 10000 nM and at most 100 nM.
Regarding `Oc1nc(OCCCC(F)(F)F)nc2cnccc12` [Example 20, 2-(4,4,4-trifluorobutoxy)pyrido[3,4-d]pyrimidin-4-ol], the IC50 with KDM5A/B is above 10000 nM; against Jarid1A, at most 100 nM.
For `Oc1nc(Oc2cnn(Cc3cccc(Cl)c3)c2)nc2cnccc12` [Example 122, 2-({1-[(3-chlorophenyl)methyl]-1H-pyrazol-4-yl}oxy)pyrido[3,4-d]pyrimidin-4-ol] the same measures were 1000 to 10000 nM and at most 100 nM.
On the same counts, the results for `CCS(=O)(=O)N1CCC[C@H](n2cc(Oc3nc(O)c4ccncc4n3)cn2)C1` [Example 161, 2-({1-[(3S)-1-(ethanesulfonyl)piperidin-3-yl]-1H-pyrazol-4-yl}oxy)pyrido[3,4-d]pyrimidin-4-ol] are 100 to 1000 nM and at most 100 nM.
Turning to `Oc1nc(Oc2cnn([C@@H]3CCN(Cc4ccccc4)C3)c2)nc2cnccc12` [Example 133, 2-({1-[(3R)-1-benzylpyrrolidin-3-yl]-1H-pyrazol-4-yl}oxy)pyrido[3,4-d]pyrimidin-4-ol], the IC50 was 1000 to 10000 nM with KDM5A/B and at most 100 nM against Jarid1A.
With `C[C@@H](c1ccccc1)n1cc(Oc2nc(O)c3ccncc3n2)cn1` [Example 118, 2-({1-[(1S)-1-phenylethyl]-1H-pyrazol-4-yl}oxypyrido) [3,4-d]pyrimidin-4-ol], the IC50 is 100 to 1000 nM with KDM5A/B and at most 100 nM on Jarid1A.
For `C[C@H](c1ccccc1F)n1cc(Oc2nc(O)c3ccncc3n2)cn1` [Example 119, 2-({1-[(1R)-1-(2-fluorophenyl)ethyl]-1H-pyrazol-4-yl}oxy)pyrido[3,4-d]pyrimidin-4-ol] the same measures were 100 to 1000 nM and at most 100 nM.
On the same counts, the results for `Oc1nc(Oc2cnn(Cc3ccccc3Cl)c2)nc2cnccc12` [Example 121, 2-({1-[(2-chlorophenyl)methyl]-1H-pyrazol-4-yl}oxy)pyrido[3,4-d]pyrimidin-4-ol] are 1000 to 10000 nM and at most 100 nM.
